Source: EP0369744B1, “Xanthine derivatives, process for their preparation and pharmaceutical compositions” (SMITHKLINE BEECHAM PHARMA GmbH, priority 1988, dated 1990)

Tested on: gerbils
Test: Delayed neuronal death in gerbils after transient forebrain ischaemia
Assay type: in vivo
Protocol: Ischaemia was produced in adult male gerbils by occlusion of both common carotid arteries for 3 minutes under halothane/nitrous oxide anaesthesia. During surgery the animals were placed upon a warming blanket. The ischaemia led to neuronal degeneration and to disturbed brain function.
Brains were removed 2 weeks later and 12 µm thick coronal slices were examined light microscopically for neuronal degeneration.
Three groups of animals were used: • 1. sham ligated controls • 2. solvent-treated ligated controls • 3. compound-treated ligated animals The compound was administered 1 hour before the ligation period.
Means ± SEM (n) of histopathological score [HPS] which reflects the degree of neuronal damage in the hippocampal CA1 field: 0 = no damaged neurons 1 = mild necrosis 2 = moderate necrosis 3 = severe necrosis 4 = complete necrosis

## O=c1c2[nH]cnc2n(CC2CC2)c(=O)n1CC1CC1 [Example 1, 1,3-Di-cyclopropylmethyl xanthine]
  ischaemia induced neuronal degeneration (conclusion): significantly prevented ischaemia induced neuronal degeneration
